# According to PMC4876673, “Antitrypanosomal activity of 5-nitro-2-aminothiazole-based compounds” (European Journal of Medicinal Chemistry, 2016):
# Like-named read-outs stand apart in the source and are kept apart here.
# What was measured:
# [1] = test system: T.b. rhodesiense, strain STIB 900 trypomastigotes; assay: In vitro activity against T. b. rhodesiense, strain STIB 900 trypomastigotes; type: cell-based, Trypanosoma brucei rhodesiense; settings: for IC50: Trypanosoma brucei, read-out: T.b.r. IC50; for SI (T.b.r.): ratio IC50 in L6 cells/IC50 in T.b. rhodesiense
# Method: (§1) Compounds in Table 1 were screened for antiparasitic activity against three trypanosomatids: T. cruzi, T. b. rhodesiense and Leishmania donovani. The concentration of compound that inhibits parasite growth by 50% (IC50) was calculated from dose response curves for each parasite (Table 1). In addition, compounds were tested for toxicity in L6 rat skeletal myoblasts, used as host cells for T. cruzi amastigotes, in order to calculate a selectivity index for each parasite (SI = IC50L6/IC50parasite) (Table 1).
# (§2) In vitro activity against T. cruzi, T. b. rhodesiense, L. donovani and cytotoxicity assessment using L6 cells (rat skeletal myoblasts) was determined using a 96-well plate format as previously described. Data were analyzed with the graphic program Softmax Pro (Molecular Devices, Sunnyvale, CA, USA), which calculated IC50 values by linear regression from the sigmoidal dose inhibition curves.
# [2] = test system: T. cruzi, strain Tulahuen C4 amastigotes; assay: In vitro activity against T. cruzi amastigotes in infected L6 cells; type: cell-based, Trypanosoma cruzi; settings: for IC50: Trypanosoma cruzi, T. cruzi Tulahuen C4 amastigotes in L6 cells, read-out: T. c. IC50; for SI (T. c.): ratio IC50 in L6 cells/IC50 in T. cruzi; for Bnz/comp: ratio of T. cruzi IC50 of benznidazole to that of the compound
# Method: (§3) In vitro activity against T. cruzi, T. b. rhodesiense, L. donovani and cytotoxicity assessment using L6 cells (rat skeletal myoblasts) was determined using a 96-well plate format as previously described [38]. Data were analyzed with the graphic program Softmax Pro (Molecular Devices, Sunnyvale, CA, USA), which calculated IC50 values by linear regression from the sigmoidal dose inhibition curves.
# [3] = test system: L. donovani axenic, strain MHOM-ET-67/L82 amastigotes; assay: In vitro activity against L. donovani axenic amastigotes; type: cell-based, Leishmania donovani; settings: for activity class against L. donovani: L. donovani amastigotes; for IC50: Leishmania donovani, L. donovani axenic amastigotes MHOM-ET-67/L82, read-out: L.d. IC50; for SI (L.d.): ratio IC50 in L6 cells/IC50 in L. donovani
# Method: as §3
# [4] = test system: L6 cells (rat skeletal myoblasts); assay: Cytotoxicity in the host L6 cells; type: cell-based; settings: read-out: Cyt. L6 IC50
# Method: as §1, §2
# T. b. brucei wild type = assay: T. brucei brucei antiproliferating assay, wild type bloodstream form; type: cell-based; settings: Trypanosoma brucei, 72 h
# Method: (§4) To further determine whether NTR plays a role in metabolizing the substrates within the parasite, the above subset of compounds were phenotypically screened against BSF T. b. brucei expressing wild type or elevated levels of TbNTR.
# (§5) Where appropriate, induction of the TbNTR was carried out by adding tetracycline (1 μg/mL). After incubation for 3 days at 37 °C, resazurin (2.5 μg per well) was added to each well and the plates incubated for a further 8 h. The cell density of each culture was determined as described before [26] and the IC50 established.
# [5] = test system: TbNTR overexpressing T. b. brucei; assay: microbe, parasite or virus in culture; type: cell-based, Trypanosoma brucei brucei; settings: for Ratio –tet/+tet: IC50 −tet / IC50 +tet; for IC50: Trypanosoma brucei
# Method: as §4, §5
# [6] = T.b. rhodesiense STIB 900 trypomastigotes
# [7] = read-out: IC50 value T.b. brucei Wild type, BSF, wild type, 3 days
# [8] = read-out: IC50 value T.b. brucei TbNTR (+tet)
# [9] = read-out: IC50 value T.b. brucei TbNTR (−tet)
SMILES,"IC50 [1, 6] [µM]",SI (T.b.r.) [1],IC50 [2] [µM],SI (T. c.) [2],Bnz/comp [2],activity class against L. donovani [3],IC50 [3] [µM],SI (L.d.) [3],IC50 [4] [µM],melting point,IC50 [1] [µM],fold less potent against T. cruzi than the corresponding 3-nitrotriazole-based analog ([2]; comparison with analogs of ref 24),IC50 (T. b. brucei wild type; [7]) [µM],Ratio –tet/+tet [5],"IC50 [5, 8] [µM]","IC50 [5, 9] [µM]","IC50 (T. b. brucei wild type; BSF, wild type, 3 days, read-out: IC50 value T.b. brucei Wild type) [µM]"
"O=C(COc1cccc(-c2ccccc2)c1)Nc1ncc([N+](=O)[O-])s1 [Compound 9, 2-([1,1′-biphenyl]-3-yloxy)-N-(5-nitrothiazol-2-yl)acetamide]",28.7,1.7,22.8,2.2,0.1,moderately active (between 1.0 and 6.0 μM),4.27,12,49.4,148 to 150 °C,–,–,–,–,–,–,–
"O=C(COc1ccc(Oc2ccccc2)cc1)Nc1ncc([N+](=O)[O-])s1 [Compound 12, N-(5-nitrothiazol-2-yl)-2-(4-phenoxyphenoxy)acetamide]",28.4,–,32.6,–,0.1,moderately active (between 1.0 and 6.0 μM),5.4,–,52.7,–,–,–,–,–,–,–,–
"Nc1nc(N)nc(Nc2ccc([As]3SCC(CO)S3)cc2)n1 (stereo not shown) [Melars., Melarsoprol, reference compound]",–,–,–,–,–,–,–,–,–,–,0.009 ± 0.001,–,–,–,–,–,–
"O=C(CN1CCN(C(c2ccccc2)c2ccc(Cl)cc2)CC1)Nc1ncc([N+](=O)[O-])s1 (stereo not shown) [Compound 6, 2-(4-((4-chlorophenyl)(phenyl)methyl)piperazin-1-yl)-N-(5-nitrothiazol-2-yl)acetamide]",17.4,<1,0.571,23,3.8,moderately active (between 1.0 and 6.0 μM),3.39,3.8,12.9,92 to 95 °C,–,about 8 fold,1.47 ± 0.104,2.6,0.636 ± 0.022,1.64 ± 0.069,–
"CC1CS(=O)(=O)CCN1/N=C/c1ccc([N+](=O)[O-])o1 (stereo not shown) [nfx, nifurtimox, reference compound]",–,–,–,–,–,–,–,–,–,–,–,–,–,7.3,0.869 ± 0.046,6.36 ± 0.119,3.98 ± 0.15
"O=C(COc1ccc(-c2ccccc2)cc1)Nc1ncc([N+](=O)[O-])s1 [Compound 11, 2-([1,1′-biphenyl]-4-yloxy)-N-(5-nitrothiazol-2-yl)acetamide]",40.8,1.3,18.4,3,0.1,–,10.5,5.2,54.9,196 to 198 °C,–,–,3.75 ± 0.383,1.5,2.2 ± 0.1,3.25 ± 0.142,–
"O=C(CN1CCN(c2ccc(C(F)(F)F)cc2)CC1)Nc1ncc([N+](=O)[O-])s1 [Compound 3, N-(5-nitrothiazol-2-yl)-2-(4-(4-(trifluoromethyl)phenyl)piperazin-1-yl)acetamide]",8.42,5.6,1.73,27,1.3,–,12.7,3.7,47.1,173 to 175 °C,–,–,1.02 ± 0.045,2.8,0.526 ± 0.024,1.46 ± 0.113,–
"O=C(COc1cccc(Oc2ccccc2)c1)Nc1ncc([N+](=O)[O-])s1 [Compound 10, N-(5-nitrothiazol-2-yl)-2-(3-phenoxyphenoxy)acetamide]",31,1.8,34.6,1.6,0.1,moderately active (between 1.0 and 6.0 μM),5.4,10,54.9,151 to 153 °C,–,–,–,–,–,–,–
"Cc1ccc(N2CCN(CC(=O)Nc3ncc([N+](=O)[O-])s3)CC2)cc1 [Compound 2, N-(5-nitrothiazol-2-yl)-2-(4-(p-tolyl)piperazin-1-yl)acetamide]",14.4,8.8,9.31,14,0.2,–,41.4,3,126,160 to 161 °C (dec.),–,–,–,–,–,–,–
"O=C(CN1CCN(c2ccccn2)CC1)Nc1ncc([N+](=O)[O-])s1 [Compound 7, N-(5-nitrothiazol-2-yl)-2-(4-(pyridin-2-yl)piperazin-1-yl)acetamide]",13.3,2.2,4.97,5.9,0.4,–,64.9,<1,29.6,175 to 180 °C (dec.),–,–,–,–,–,–,–
"COc1ccc(N2CCN(CC(=O)Nc3ncc([N+](=O)[O-])s3)CC2)cc1 [Compound 4, 2-(4-(4-methoxyphenyl)piperazin-1-yl)-N-(5-nitrothiazol-2-yl)acetamide]",13.8,10,3.06,–,0.7,–,68.2,2.1,143,154 to 156 °C (dec.),–,–,–,–,–,–,–
"O=C(Nc1ncc([N+](=O)[O-])s1)c1ccc(-c2ccccc2)cc1 [Compound 8, N-(5-nitrothiazol-2-yl)-[1,1′-biphenyl]-4-carboxamide]",14.3,<1,2.52,2.6,0.9,–,104,<1,6.57,> 230 °C,–,–,1.61 ± 0.396,2.1,2.18 ± 0.085,4.59 ± 0.149,–
"O=C(CN1CCN(c2ccc(Cl)c(Cl)c2)CC1)Nc1ncc([N+](=O)[O-])s1 [Compound 5, 2-(4-(3,4-dichlorophenyl)piperazin-1-yl)-N-(5-nitrothiazol-2-yl)acetamide]",10.8,4.2,1.53,30,1.4,–,7.55,6.1,45.7,169 to 171 °C,–,–,1.36 ± 0.091,2.6,0.747 ± 0.075,1.96 ± 0.101,–
